Assay results taken from PubChem BioAssay AID2060325 (Molecular Pharmacology Branch, DTP, NCI, 2025).
Where “and” joins values, the source holds several entries; their conditions need not be identical. Equal entries are not always repeated.

Test system: SK-OV-3 multi-cell spheroids, viability
Assay: Anticancer human tumor SK-OV-3 cell line growth inhibition [IpAb];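 as to viability, T/C: viability read after seven days of drug exposure; percent of DMSO vehicle control luminescence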
Settings: for viability, T/C: stronger effect = lower value
Text: Combinatorial screen of targeted agents with ipatasertib and abemaciclib in multi-cell type tumor spheroids
A high-throughput screen of multi-cell type tumor spheroids was designed to identify active combinations of targeted small molecules and ipatasertib or abemaciclib. Complex spheroids include a stromal component modeled by human endothelial cells (HUVEC) and fibroblasts modeled by human mesenchymal stem cells (MSCs). The concentration ranges selected for each drug and investigational agent were based upon clinically achievable concentrations if the clinical Cmax of the agent was known.
Compounds. The drugs and investigational agents: ipatasertib (NSC767898), abemaciclib(NSC768073), selumetinib (NSC741078), trametinib (758246), adavosertib (NSC754352), everolimus (NSC733504), sapanisertib (NSC764658), vemurafenib (NSC761431), venetoclax (NSC766270), copanlisib (NSC809693), apelisib (NSC765974), palbociblib (NSC758247), vemurafenib (NSC761431), dabrafenib (NSC764134), ravoxertinib (NSC781343), BMS-387032 (NSC767048), sotorasib (NSC818433), talazoparib (NSC767125) and afursertib (NSC778305), were obtained from the National Cancer Institute (NCI) Developmental Therapeutics Program Chemical Repository. The FDA-approved anticancer drug set is available from the NCI Developmental Therapeutics Program. […] The stock solutions were prepared in dimethyl sulfoxide (DMSO, Sigma-Aldrich, St. Louis, MO, cat. D2650) at 800-fold the tested concentration and stored at -70 degrees C prior to their use. All drugs and investigational agents were tested over a range starting from a high concentration at or near the clinical Cmax and decreasing in half-log increments. If the clinical Cmax for an agent had not been determined, the highest concentration tested was 10 microM.
NCI60 Cell Culture. NCI60 cell lines were obtained from the NCI Developmental Therapeutics Program Tumor Repository. For each lot of cells, the Repository performed Applied Biosystems AmpFLSTR Identifiler testing with PCR amplification to confirm consistency with the published Identifier STR profile for each cell line. Cells were kept in continuous culture for no more than 20 passages. The optimal seeding densities for each of the cell lines at each time point assessed were determined prior to performing the concentration response studies. Briefly, the NCI60 human tumor lines were grown as monolayers in RPMI 1640 medium supplemented with 10% FBS and 2 mmol/L L-glutamine.
An additional 9 lines were from the NCI60 cell line panel including MDA-MB-231 breast carcinoma, MDA-MB-468 breast carcinoma, MCF7 breast carcinoma, Hs578T breast carcinoma, MALME-3M melanoma, SK-MEL-2 melanoma, SK-OV-3 ovarian carcinoma, DU-145 prostate carcinoma, PC-3 prostate carcinoma, all cell lines along with major genetic alterations are listed on Table 2. Pooled donor human umbilical vein endothelial cells (HUVEC, Lonza, cat. CC-2519) and human mesenchymal stem cells (hMSC, Lonza, cat. PT-2501) were purchased from Lonza (Walkersville, MD).
PDMR cell lines were grown in complete medium (DC medium): Dulbecco's modified Eagle's medium (DMEM)/F12 supplemented with 5% fetal bovine serum (FBS), 2 mM L-glutamine, 100 U/mL penicillin and 100 µg/ml streptomycin, 0.4 µg/ml hydrocortisone, 10 ng/ml epidermal growth factor (EGF) recombinant human protein, 24 µg/mL adenine, and 0.1 mg/mL primocin. During culture from frozen stock vials, PDMR cells were cultured in the same medium containing 10 µM Y-27632 (see Table 3). The PDCs were cultured in complete DMEM/F12 media without 10 microM Y-27632 dihydrochloride for at least two passages prior to the screen. The pooled donor HUVEC and hMSC were cultured in endothelial cell growth medium 2 (PromoCell, Heidelberg, Germany, cat. C-22011) and mesenchymal stem cell growth medium 2 (PromoCell, cat. C-28009), respectively. For all experiments, HUVEC and hMSC were used at passages </=5.
[…]

[1] = curve of first compound, second compound 0.1 µM
[2] = curve of first compound, second compound 0.316 µM
[3] = curve of first compound, second compound 1 µM
[4] = second compound 0.1 µM, first compound 0.00949 µM
[5] = second compound 0.1 µM, first compound 0.03 µM
[6] = second compound 0.1 µM, first compound 0.0949 µM
[7] = second compound 0.1 µM, first compound 0.3 µM
[8] = second compound 0.1 µM, first compound 0.949 µM
[9] = second compound 0.1 µM, first compound 3 µM
[10] = second compound 0.316 µM, first compound 0.00949 µM
[11] = second compound 0.316 µM, first compound 0.03 µM
[12] = second compound 0.316 µM, first compound 0.0949 µM
[13] = second compound 0.316 µM, first compound 0.3 µM
[14] = second compound 0.316 µM, first compound 0.949 µM
[15] = second compound 0.316 µM, first compound 3 µM
[16] = second compound 1 µM, first compound 0.00949 µM
[17] = second compound 1 µM, first compound 0.03 µM
[18] = second compound 1 µM, first compound 0.0949 µM
[19] = second compound 1 µM, first compound 0.3 µM
[20] = second compound 1 µM, first compound 0.949 µM
[21] = second compound 1 µM, first compound 3 µM
[22] = curve of first compound, second compound 0.01 µM
[23] = curve of first compound, second compound 0.0316 µM
[24] = second compound 0.01 µM, first compound 0.00949 µM
[25] = second compound 0.01 µM, first compound 0.03 µM
[26] = second compound 0.01 µM, first compound 0.0949 µM
[27] = second compound 0.01 µM, first compound 0.3 µM
[28] = second compound 0.01 µM, first compound 0.949 µM
[29] = second compound 0.01 µM, first compound 3 µM
[30] = second compound 0.0316 µM, first compound 0.00949 µM
[31] = second compound 0.0316 µM, first compound 0.03 µM
[32] = second compound 0.0316 µM, first compound 0.0949 µM
[33] = second compound 0.0316 µM, first compound 0.3 µM
[34] = second compound 0.0316 µM, first compound 0.949 µM
[35] = second compound 0.0316 µM, first compound 3 µM

Compound	IC50 [1] [nM]	IC50 [2] [nM]	IC50 [3] [nM]	viability, T/C [4] [%]	viability, T/C [5] [%]	viability, T/C [6] [%]	viability, T/C [7] [%]	viability, T/C [8] [%]	viability, T/C [9] [%]	viability, T/C [10] [%]	viability, T/C [11] [%]	viability, T/C [12] [%]	viability, T/C [13] [%]	viability, T/C [14] [%]	viability, T/C [15] [%]	viability, T/C [16] [%]	viability, T/C [17] [%]	viability, T/C [18] [%]	viability, T/C [19] [%]	viability, T/C [20] [%]	further results
Cn1cnc2c(F)c(Nc3ccc(Br)cc3Cl)c(C(=O)NOCCO)cc21 + CC(C)NCC(C(=O)N1CCN(c2ncnc3c2C(C)CC3O)CC1)c1ccc(Cl)cc1	164	< 9.49	< 9.49	61.9	62	49.1	48	35.8	19.7	33.9	30.4	25.8	21.6	18.6	10.3	19.6	16.7	15.2	11.8	9.36	IC50 (curve of first compound, second compound 3.16 µM): < 9.49 nM; IC50 (curve of first compound, second compound 10 µM): < 9.49 nM; viability, T/C [21]: 4.86%; viability, T/C (second compound 3.16 µM, first compound 0.00949 µM): 13.5%; viability, T/C (second compound 3.16 µM, first compound 0.03 µM): 11.4%; viability, T/C (second compound 3.16 µM, first compound 0.0949 µM): 9.44%; viability, T/C (second compound 3.16 µM, first compound 0.3 µM): 9.1%; viability, T/C (second compound 3.16 µM, first compound 0.949 µM): 6.43%; viability, T/C (second compound 3.16 µM, first compound 3 µM): 3.45%; viability, T/C (second compound 10 µM, first compound 0.00949 µM): 6.91%; viability, T/C (second compound 10 µM, first compound 0.03 µM): 7.44%; viability, T/C (second compound 10 µM, first compound 0.0949 µM): 7.64%; viability, T/C (second compound 10 µM, first compound 0.3 µM): 5.26%; viability, T/C (second compound 10 µM, first compound 0.949 µM): 4.92%; viability, T/C (second compound 10 µM, first compound 3 µM): 2.28%
COc1c(OCCCN2CCOCC2)ccc2c3n(c(=NC(=O)c4cnc(N)nc4)nc12)CCN3	–	–	–	–	–	–	–	–	–	–	–	–	–	–	–	–	–	–	–	–	viability, T/C (compound 0.00316 µM): 92.7% and 89.1%; viability, T/C (compound 0.01 µM): 44.2% and 46.4%; viability, T/C (compound 0.0316 µM): 11.5% and 12.2%; viability, T/C (compound 0.1 µM): 7.4% and 8.86%; viability, T/C (compound 0.316 µM): 6.39% and 5.98%; viability, T/C (compound 1 µM): 4.6% and 3.86%; IC50 (curve of compound): 8.71 nM and 9.06 nM
CC(C)(C)c1cnc(CSc2cnc(NC(=O)C3CCNCC3)s2)o1 + CCN1CCN(Cc2ccc(Nc3ncc(F)c(-c4cc(F)c5nc(C)n(C(C)C)c5c4)n3)nc2)CC1	147	129	< 9.49	63	70.4	80.5	15.7	0.84	0.9	60.1	62	63.4	17.3	0.83	1.1	44.7	51.1	50.1	12.7	1.41	IC50 [22]: 196 nM; IC50 [23]: 168 nM; viability, T/C [24]: 99.3%; viability, T/C [25]: 109%; viability, T/C [26]: 104%; viability, T/C [27]: 18.4%; viability, T/C [28]: 0.62%; viability, T/C [29]: 1.2%; viability, T/C [30]: 80.2%; viability, T/C [31]: 87.8%; viability, T/C [32]: 88.3%; viability, T/C [33]: 14%; viability, T/C [34]: 1.38%; viability, T/C [35]: 1.32%; viability, T/C [21]: 1.15%
Cn1cnc2c(F)c(Nc3ccc(Br)cc3Cl)c(C(=O)NOCCO)cc21 + CCN1CCN(Cc2ccc(Nc3ncc(F)c(-c4cc(F)c5nc(C)n(C(C)C)c5c4)n3)nc2)CC1	390	167	< 9.49	59.8	59.1	66.8	51.2	38.6	28.2	61.7	63.7	49.1	47.4	38.8	28.4	41.8	50.6	50.8	44.6	35.9	IC50 [22]: 1670 nM; IC50 [23]: 1180 nM; viability, T/C [24]: 90.9%; viability, T/C [25]: 95.4%; viability, T/C [26]: 98%; viability, T/C [27]: 96%; viability, T/C [28]: 65.5%; viability, T/C [29]: 33.9%; viability, T/C [30]: 80.6%; viability, T/C [31]: 79.5%; viability, T/C [32]: 84.1%; viability, T/C [33]: 75.1%; viability, T/C [34]: 55.5%; viability, T/C [35]: 27.1%; viability, T/C [21]: 24.2%
